Results on 25 molecules are retold here after US7868013B2, “Cycloalkyl substituted pyrimidinediamine compounds and their uses” (Rigel Pharmaceuticals, Inc., priority 2004, dated 2011).

Counter-ions that a name gives are not always drawn. Like-named read-outs stand apart in the source and are kept apart here.

Assay [1] deals with H1299 (non-small cell lung carcinoma). The assay is described as follows: In vitro antiproliferation assay, H1299 cells (TABLE 1 6 point assay; TABLE 2). Format: cell-based. How it is done:
(§1) Certain compounds were tested against other cell types for their ability to inhibit proliferation in standard antiproliferation assays.

The next assay deals with A549 (lung carcinoma). Nature of the assay: In vitro antiproliferation assay, A549 cells (TABLE 1 6 point assay; TABLE 2). Format: cell-based. How it is done:
as §1

Where [2] appears, read: Homo sapiens, NCI-H1299, H1299 cells, 6 point assay, read-out: H1299, 6pt (IC50, inhibition of proliferation).
The mark [3] stands for this setting: Homo sapiens, A549, A549 cells, 6 point assay, read-out: A549, 6pt (IC50, inhibition of proliferation).
Where [4] appears, read: Homo sapiens, NCI-H1299, 6 point assay, H1299 cells, read-out: IC50, H1299 cells.
The mark [5] stands for this setting: Homo sapiens, A549, 6 point assay, A549 cells, read-out: IC50, A549 cells.

`Cc1cc(Nc2ncc(F)c(N[C@H]3[C@@H](C(N)=O)[C@@H]4C=C[C@H]3C4)n2)ccc1N1CCN(C)CC1` [compound 121, (1R,2R,3S,4S)-N4-(3-Aminocarbonylbicyclo[2.2.1]hept-5-ene-2-yl)-5-fluoro-N2-[3-methyl-4-(4-methylpiperazin-1-yl)phenyl]-2,4-pyrimidinediamine Adipic Acid Salt]: the IC50 (in assay [1] (setting [2]); with A549 (lung carcinoma) (setting [3])) was at most 100 nM throughout.
On to `CN1CCN(c2cccc(Nc3ncc(F)c(NC4CCCC4C(N)=O)n3)c2)CC1` (centres unmarked) [compound 195], for which the IC50 (in assay [1] (setting [4]); in the assay with A549 (lung carcinoma) (setting [5])) was 100 to 1000 nM throughout.
In the case of `Cc1cc(Nc2ncc(F)c(N[C@H]3CC[C@H](C(N)=O)C3)n2)ccc1N1CCN(C)CC1` [compound 220, (1S,3S)-N4-(3-Aminocarbonylcyclopent-1-yl)-5-fluoro-N2-[3-methyl-4-(4-methylpiperazin-1-yl)phenyl]-2,4-pyrimidinediamine], the IC50 (in assay [1] (setting [4]); in the assay on A549 (lung carcinoma) (setting [5])) was 1000 to 10000 nM in each case.
As to `NC(=O)C1CCCC1Nc1nc(Nc2ccc(N3CCOCC3)cc2)ncc1F` (centres unmarked) [compound 198, N4-(2-Carboxamidocyclopentyl)-5-fluoro-N2-(4-morpholinophenyl)-2,4-pyrimidinediamine], the IC50 (in assay [1] (setting [4]); in the assay on A549 (lung carcinoma) (setting [5])) was 100 to 1000 nM throughout.
As to `Cc1cc(Nc2ncc(F)c(N[C@H]3C=CC[C@H]3C(N)=O)n2)ccc1N1CCN(C)CC1` (racemic) [Compound 286, Racemic-cis-N4-(2-aminocarbonylcyclopent-4-en-1-yl)-5-fluoro-N2-[3-methyl-4-(4-methylpiperazin-1-yl)phenyl]-2,4-pyrimidinediamine], the IC50 (in assay [1] (setting [4]); in the assay with A549 (lung carcinoma) (setting [5])) was 100 to 1000 nM in each case.
Take `Cc1cc(Nc2ncc(F)c(N[C@H]3[C@@H](C(N)=O)[C@@H]4C=C[C@H]3C4)n2)ccc1OCC1CCN(C)CC1` [compound 153, (1R,2R,3S,4S)-N4-(3-Aminocarbonylbicyclo[2.2.1]hept-5-en-2-yl)-5-fluoro-N2-[4-(1-methylpiperidin-4-ylmethyleneoxy)-3-methylphenyl]-2,4-pyrimidinediamine]: the IC50 (in assay [1] (setting [2]); with A549 (lung carcinoma) (setting [3])) was at most 100 nM in each case.
On to `CN1CCC(Oc2cccc(Nc3ncc(F)c(N[C@H]4[C@@H](C(N)=O)[C@@H]5C=C[C@H]4C5)n3)c2)CC1` [compound 149, (1R,2R,3S,4S)-N4-(3-Aminocarbonylbicyclo[2.2.1]hept-5-en-2-yl)-5-fluoro-N2-[3-(1-methylpiperidin-4-yloxy)phenyl]-2,4-pyrimidinediamine], for which the IC50 (in assay [1] (setting [2]); with A549 (lung carcinoma) (setting [3])) was at most 100 nM in each case.
On to `CN1CCN(c2ccc(Nc3ncc(F)c(NC4C5C=CC(C5)C4C(N)=O)n3)cc2)CC1` (racemic) [compound 230, Racemic-(2-exo,3-exo)-N4-(3-aminocarbonylbicyclo[2.2.1]hept-5-en-2-yl)-5-fluoro-N2-[4-(4-methylpiperazin-1-yl)phenyl]-2,4-pyrimidinediamine], for which the IC50 (in assay [1] (setting [4]); in the assay on A549 (lung carcinoma) (setting [5])) was at most 100 nM throughout.
Regarding `Cc1cc(Nc2ncc(F)c(N[C@H]3CCC[C@@H]3C(=O)O)n2)ccc1N1CCN(C)CC1` [compound 209, (1S,2S)-5-fluoro-N4-(2-hydroxycarbonylcyclopent-1-yl)-N2-[3-methyl-4-(4-methylpiperazino)phenyl]-2,4-pyrimidinediamine], the IC50 (in assay [1] (setting [4]); with A549 (lung carcinoma) (setting [5])) was above 10000 nM throughout.
With `Cc1cc(Nc2ncc(F)c(NC3(C(=O)NC4CC4)CCCC3)n2)ccc1N1CCN(C)CC1` [compound 247, N4-(1-Cyclopropylaminocarbonylcyclopent-1-yl)-5-fluoro-N2-[3-methyl-4-(4-methylpiperazin-1-yl)phenyl]-2,4-pyrimidinediamine], the IC50 (in assay [1] (setting [4]); with A549 (lung carcinoma) (setting [5])) was above 10000 nM in each case.
On to `Cc1cc(Nc2ncc(F)c(N[C@H]3[C@@H](C(N)=O)[C@@H]4C=C[C@H]3C4)n2)ccc1N(C1CC1)C1CCN(C)CC1` [compound 123, (1R,2R,3S,4S)-N4-(3-Aminocarbonylbicyclo[2.2.1]hept-5-en-2-yl)-5-fluoro-N2-{4-[N-cyclopropyl-(1-methylpiperidin-4-yl)]-3-methylphenyl}-2,4-pyrimidinediamine], for which the IC50 (in assay [1] (setting [2]); in the assay on A549 (lung carcinoma) (setting [3])) was at most 100 nM each time.
As to `CC(=O)N1CCN(c2ccc(Nc3ncc(F)c(NC4CCCC4C(N)=O)n3)cc2)CC1` (centres unmarked) [compound 196, N2-[4-(4-Acetylpiperazino)phenyl]-N4-(2-carboxamidocyclopentyl)-5-fluoro-2,4-pyrimidinediamine], the IC50 (in assay [1] (setting [4]); in the assay on A549 (lung carcinoma) (setting [5])) was 100 to 1000 nM each time.
As to `CCCNC(=O)C1C2C=CC(C2)C1Nc1nc(Nc2ccc(N3CCN(C)CC3)c(C)c2)ncc1F` (racemic) [compound 168, Racemic-(2-exo,3-exo)-5-fluoro-N2-[4-(4-methylpiperazin-1-yl)-3-methylphenyl]-N4-[3-(N-n-propyl)aminocarbonylbicyclo[2.2.1]hept-5-en-2-yl]-2,4-pyrimidinediamine], the IC50 (in assay [1] (setting [2]); with A549 (lung carcinoma) (setting [3])) was at most 100 nM each time.
For the molecule `CCOC(=O)N1CCN(c2cccc(Nc3ncc(F)c(NC4CCCC4C(N)=O)n3)c2)CC1` (centres unmarked) [compound 201, N4-(2-Carboxamidocyclopentyl)-N2-[3-(4-ethoxycarbonylpiperazino)phenyl]-5-fluoro-2,4-pyrimidinediamine], the IC50 is 1000 to 10000 nM in assay [1] (setting [4]) and 100 to 1000 nM with A549 (lung carcinoma) (setting [5]).
As for `CN1CCN(c2ccc(Nc3ncc(F)c(NC4CCCC4C(N)=O)n3)cc2)CC1` (centres unmarked) [compound 194, N4-(2-Carboxamidocyclopentyl)-5-fluoro-N2-[4-(4-methylpiperazino)phenyl]-2,4-pyrimidinediamine], the IC50 (in assay [1] (setting [4]); in the assay with A549 (lung carcinoma) (setting [5])) was 100 to 1000 nM in each case.
With `Cc1cc(Nc2ncc(F)c(NC3CC=CC3)n2)ccc1N1CCN(C)CC1` [compound 237, N4-(Cyclopent-3-ene-1-yl)-5-fluoro-N2-[3-methyl-4-(4-methylpiperazin-1-yl)phenyl]-2,4-pyrimidinediamine], the IC50 in assay [1] (setting [4]) was 1000 to 10000 nM; with A549 (lung carcinoma) (setting [5]), 100 to 1000 nM.
For `CN1CCN(c2ccc(Nc3ncc(F)c(NC4CCCC4C(N)=O)n3)cc2Cl)CC1` (stereo not drawn) [compound 205, (cis)-N4-(2-Carboxamidocyclopent-1-yl)-N2-[3-chloro-4-(4-methylpiperazino)phenyl]-5-fluoro-2,4-pyrimidinediamine], the IC50 in assay [1] (6 point assay, H1299 cells, read-out: IC50, H1299 cells) was 100 to 1000 nM; in the assay with A549 (lung carcinoma) (6 point assay, A549 cells, read-out: IC50, A549 cells) it was 100 to 1000 nM.
As to `Cc1cc(Nc2ncc(F)c(N[C@@H]3C=C[C@H](C(N)=O)C3)n2)ccc1N1CCN(C)CC1` [compound 225, (1S,4R)-cis-N4-(4-Aminocarbonylcyclopent-2-ene-1-yl)-5-fluoro-N2-[3-methyl-4-(4-methylpiperazin-1-yl)phenyl]-2,4-pyrimidinediamine], the IC50 (in assay [1] (setting [4]); in the assay on A549 (lung carcinoma) (setting [5])) was 100 to 1000 nM throughout.
On to `CN1CCN(C(=O)c2ccc(Nc3ncc(F)c(N[C@H]4CCC[C@H]4C(N)=O)n3)cc2)CC1` (racemic) [compound 281, Racemic-cis-N4-(2-aminocarbonylcyclopent-1-yl)-5-fluoro-N2-[4-(4-methylpiperaino-1-yl-carbonyl)phenyl]-2,4-pyrimidinediamine], for which the IC50 (in assay [1] (setting [4]); in the assay on A549 (lung carcinoma) (setting [5])) was 1000 to 10000 nM each time.
As to `Cc1cc(Nc2ncc(F)c(N[C@H]3C=CCC[C@H]3C(N)=O)n2)ccc1N1CCN(C)CC1` (racemic) [compound 227, Racemic-cis-N4-(2-aminocarbonylcyclohex-5-ene-1-yl)-5-fluoro-N2-[3-methyl-4-(4-methylpiperazin-1-yl)phenyl]-2,4-pyrimidinediamine], the IC50 (in assay [1] (setting [4]); in the assay with A549 (lung carcinoma) (setting [5])) was 1000 to 10000 nM each time.
With `CCNC(=O)C1C2C=CC(C2)C1Nc1nc(Nc2ccc3c(c2)CCN3S(C)(=O)=O)ncc1F` (racemic) [compound 182, Racemic-(2-exo,3-exo)-N4-[3-ethylaminocarbonylbicyclo[2.2.1]hept-5-en-2-yl)-5-fluoro-N2-[1-methylsulfonyl-2,3-dihydro-indol-5-yl]-2,4-pyrimidinediamine], the IC50 (in assay [1] (setting [2]); in the assay with A549 (lung carcinoma) (setting [3])) was at most 100 nM throughout.
Regarding `Cc1cc(Nc2ncc(F)c(N[C@H]3[C@@H](C(N)=O)[C@@H]4C=C[C@H]3C4)n2)ccc1N1CCN(C)CC1` [compound 122, (1R,2R,3S,4S)-N4-(3-Aminocarbonylbicyclo[2.2.1]hept-5-en-2-yl)-5-fluoro-N2-[3-methyl-4-(4-methylpiperazin-1-yl)phenyl]-2,4-pyrimidinediamine Tartaric Acid Salt], the IC50 (in assay [1] (setting [2]); with A549 (lung carcinoma) (setting [3])) was at most 100 nM in each case.
For `Cc1cc(Nc2ncc(F)c(N[C@H]3CCC[C@H]3C(N)=O)n2)ccc1N1CCCC1` (racemic) [Compound 287, Racemic-cis-N4-(2-aminocarbonylcyclopent-1-yl)-5-fluoro-N2-[3-methyl-4-(pyrrolidino)phenyl]-2,4-pyrimidinediamine], the IC50 (in assay [1] (setting [4]); in the assay with A549 (lung carcinoma) (setting [5])) was 1000 to 10000 nM in each case.
Take `CNC(=O)C1C2C=CC(C2)C1Nc1nc(Nc2ccc3c(ccn3CCN(C)C)c2)ncc1F` (racemic) [compound 183, Racemic-(2-exo,3-exo)-N2-[1-(2-dimethylaminoethyl)indol-5-yl]-5-fluoro-N4-[3-methylaminocarbonylbicyclo[2.2.1]hept-5-en-2-yl)-2,4-pyrimidinediamine]: the IC50 (in assay [1] (setting [2]); in the assay with A549 (lung carcinoma) (setting [3])) was at most 100 nM throughout.
Turning to `CCOC(=O)[C@@H]1CCC[C@H]1Nc1nc(Nc2ccc(N3CCN(C)CC3)c(C)c2)ncc1F` [compound 210, (1R,2R)-N4-(2-Ethoxycarbonylcyclopent-1-yl)-5-fluoro-N2-{3-methyl-4-(4-methylpiperazino)phenyl]-2,4-pyrimidinediamine], the IC50 (in assay [1] (setting [4]); in the assay on A549 (lung carcinoma) (setting [5])) was 1000 to 10000 nM in each case.
